# Data taken from patent publication US11357834B2, “Recombinant α-galactosidase A for treatment of Fabry disease” (Amicus Therapeutics, Inc., priority 2017, dated 2022).
# How the values were obtained:
# in vivo = conditions: monkey, 500 mg/kg/day
# Excerpt: (§1) Selection of Doses in the Study: The current single dose levels were selected on the basis of predicted human PK following IV dosing, non-clinical safety margins, and target therapeutic migalastat exposures for efficacy.
# [1] = General toxicology NOAEL, rat; design: AUC: dose or concentration left out as unconfirmed; conditions: in vivo
# [2] = human, in vivo, po, 1250 mg
# [3] = Phase 1 IV and oral migalastat HCl pharmacokinetics in healthy volunteers; type: in vivo, human
# Experimental: Healthy volunteers received migalastat HCl via the IV route of administration to evaluate safety, tolerability, and pharmacokinetics. Another study was performed to determine the absolute bioavailability of migalastat after an oral capsule dose as compared to an IV administered dose of migalastat HCl in healthy volunteers.
# Type of Study: This Phase 1 study was a single-center study consisting of 2 designs. Cohorts 1, 2, and 3 were performed according to a randomized, double-blind, placebo-controlled, single ascending dose (SAD) IV study design to evaluate the safety, tolerability, and PK of IV administered migalastat HCl or IV administered placebo in healthy subjects. Cohort 4 was an open-label, randomized two-way crossover arm designed to assess the absolute bioavailability of orally administered migalastat HCl relative to IV administered migalastat HCl in healthy subjects.
# Cohorts 1, 2, 3: Subjects in Cohorts 1, 2, and 3 received IV administered single ascending doses of migalastat HCl. Seven subjects were enrolled into each cohort (5 subjects randomized to migalastat HCl and 2 subjects randomized to placebo). Dosing of Cohorts 1, 2, and 3 was staggered to allow for safety and tolerability review before proceeding with the next group. Therefore, Cohorts 1, 2, and 3 were each divided into 2 sub-groups: Group A (2 subjects randomized to migalastat HCl and 1 subject randomized to placebo) and Group B (3 subjects randomized to migalastat HCl and 1 subject randomized to placebo). Subjects in Group B were dosed the day following completion of Group A dosing. Except for Cohort 3B, which was dosed 31 days after Cohort 3A because an interim PK review was performed on emerged data from Cohort 3A.
# Cohort 4 was randomized such that 5 subjects received the oral formulation and 5 subjects received the IV formulation during Period 1, followed by the alternate formulation during Period 2. • *During Period 1, all Day −1 through Day 3 assessments were performed. ** The washout period was 7 days. *** During Period 2, subjects repeated all Day −1 through Day 3 assessments.
# Subjects enrolled in Cohorts 1, 2, and 3 were randomized to receive one of the following doses of migalastat HCl (n=5) or placebo (n=2):
# [4] = Predicted human migalastat exposure after single IV dose and exposure margins
# Excerpt: as §1
# [5] = cited from earlier work
# GL-3 and plasma lyso-Gb3 [6] = experiment: Single bolus IV administration efficacy, necropsy 7 days after dose (Example 10); type: in vivo, Gla KO mice
# Experimental: The efficacy of rhα-Gal A 01-003 with and without migalastat and Fabrazyme (agalsidase beta) were compared. Enzyme was administered via a single bolus infusion into Gla KO mice with or without co-formulation with migalastat. ˜18 week old male Gla KO mice (7 per group) were given a single bolus IV administration and necropsies were performed 7 days after dose. The treatment groups are shown in Table 15 and the results are shown in FIGS. 21A-21D and Tables 16-19.
# GL-3 and plasma lyso-Gb3 [7] = experiment: Repeat administration efficacy, two bi-weekly IV administrations (Example 9); type: in vivo, Gla KO mice; conditions: enzyme alone, 1 to 10 mg/kg
# Experimental: The efficacy of rhα-Gal A 01-003 with and without migalastat and Fabrazyme (agalsidase beta) were compared. Enzyme was administered via a bolus infusion into Gla KO mice with or without co-formulation with 3 mg/kg migalastat. ˜16 week old male Gla KO mice (n=8; 72 in total) were given two bi-weekly IV administrations.
# GL-3 = GL-3 one week after single IV administration (Example 7); type: in vivo, Gla KO mice; conditions: 1 mg/kg enzyme IV, one week post-administration
# Experimental: Gla KO mice were administered 1 mg/kg of enzyme IV and GL-3 measured one week post-administration.
# GL-3 and plasma lyso-Gb3 [8] = experiment: Substrate reduction seven days after single administration (Example 6); type: in vivo, Gla KO mice; conditions: 3 mg/kg enzyme
# Experimental: The effect on substrate reduction when combining these enzymes in a co-formulation with migalastat was also assessed. […]
# In addition to assessment of enzyme activity in tissues, the degree of substrate reduction seven days post-administration was determined.
compound,measurement,setting,value
"Cl.OC[C@H]1NC[C@H](O)[C@@H](O)[C@H]1O [Migalastat HCl, migalastat HCl]",AUC,in vivo,306 µg·h/mL
same,AUC,[1],249 µg·h/mL
same,Cmax at Rat NOAEL,[1]; 1500 μg/kg/day,23400 ng/mL
same,Maximum observed individual AUC,[2],115.9 µg·h/mL
same,Maximum observed individual Cmax,[2],21900 ng/mL
same,Median observed individual AUC,[2],73.2 µg·h/mL
same,Median observed individual Cmax,[2],13000 ng/mL
same,Minimum observed individual AUC,[2],28.9 µg·h/mL
same,Minimum observed individual Cmax,[2],4780 ng/mL
same,maximum exposure (AUC),[2],116 µg·h/mL
same,"maximum arithmetic mean plasma concentration, IV dosing relative to oral dosing",[3]; 150 mg IV vs 150 mg oral,approximately 2 fold
same,time of maximum arithmetic mean plasma concentration after start of infusion,"[3]; IV 150 mg, 2-hour infusion",2 h
same,dose dependence of mean plasma concentration-time profiles,[3]; increasing IV doses 0.3 to 10 mg/kg,clear dose-dependent increase in plasma concentrations
same,time of maximum arithmetic mean plasma concentration after start of infusion,"[3]; single 2-hour IV infusion, 0.3 to 10 mg/kg",2 h
same,"Fold Cover to AUC from human oral 1250 mg, Max",[4]; 0.3 mg/kg IV,62
same,"Fold Cover to AUC from human oral 1250 mg, Median",[4]; 0.3 mg/kg IV,39
same,"Fold Cover to AUC from human oral 1250 mg, Min",[4]; 0.3 mg/kg IV,15.5
same,"Fold Cover to Cmax from human oral 1250 mg, Max",[4]; 0.3 mg/kg IV,61
same,"Fold Cover to Cmax from human oral 1250 mg, Median",[4]; 0.3 mg/kg IV,36
same,"Fold Cover to Cmax from human oral 1250 mg, Min",[4]; 0.3 mg/kg IV,2.6
same,"Fold Cover to NOAEL AUC, Monkey",[4]; 0.3 mg/kg IV,165
same,"Fold Cover to NOAEL AUC, Rat",[4]; 0.3 mg/kg IV,134
same,"Fold Cover to NOAEL Cmax, Monkey",[4]; 0.3 mg/kg IV,68
same,"Fold Cover to NOAEL Cmax, Rat",[4]; 0.3 mg/kg IV,65
same,"Fold Cover to AUC from human oral 1250 mg, Max",[4]; 10.0 mg/kg IV,1.89
same,"Fold Cover to AUC from human oral 1250 mg, Median",[4]; 10.0 mg/kg IV,1.19
same,"Fold Cover to AUC from human oral 1250 mg, Min",[4]; 10.0 mg/kg IV,0.47
same,"Fold Cover to Cmax from human oral 1250 mg, Max",[4]; 10.0 mg/kg IV,1.81
same,"Fold Cover to Cmax from human oral 1250 mg, Median",[4]; 10.0 mg/kg IV,1.07
same,"Fold Cover to Cmax from human oral 1250 mg, Min",[4]; 10.0 mg/kg IV,0.08
same,"Fold Cover to NOAEL AUC, Monkey",[4]; 10.0 mg/kg IV,4.98
same,"Fold Cover to NOAEL AUC, Rat",[4]; 10.0 mg/kg IV,4.05
same,"Fold Cover to NOAEL Cmax, Monkey",[4]; 10.0 mg/kg IV,2.02
same,"Fold Cover to NOAEL Cmax, Rat",[4]; 10.0 mg/kg IV,1.93
same,exposure linearity,"[5]; oral administrations, to 1250 mg",linear exposures
same,tissue uptake of active α-Gal A into skin,"[5]; phase 2a, 23 Fabry patients, single oral 150 mg co-administered with 0.2, 0.5, and 1.0 mg/kg agalsidase",improved tissue uptake of active α-Gal A into skin
Fabrazyme: homodimeric recombinant human α-Gal A marketed by Genzyme under the name Fabrazyme,GL-3 levels Heart,GL-3 and plasma lyso-Gb3 [6]; 1 mg/kg,183.23 μg/g tissue
same,GL-3 levels Kidney,GL-3 and plasma lyso-Gb3 [6]; 1 mg/kg,443 μg/g tissue
same,GL-3 levels Skin,GL-3 and plasma lyso-Gb3 [6]; 1 mg/kg,1465 μg/g tissue
same,Plasma lyso-Gb3 levels,GL-3 and plasma lyso-Gb3 [6]; 1 mg/kg,122 ng/mL
same,GL-3 levels Heart,GL-3 and plasma lyso-Gb3 [6]; 10 mg/kg,53.20 μg/g tissue
same,GL-3 levels Kidney,GL-3 and plasma lyso-Gb3 [6]; 10 mg/kg,281 μg/g tissue
same,GL-3 levels Skin,GL-3 and plasma lyso-Gb3 [6]; 10 mg/kg,207 μg/g tissue
same,Plasma lyso-Gb3 levels,GL-3 and plasma lyso-Gb3 [6]; 10 mg/kg,29.5 ng/mL
same,GL-3 levels Heart,GL-3 and plasma lyso-Gb3 [6]; 25 mg/kg,21.10 μg/g tissue
same,GL-3 levels Kidney,GL-3 and plasma lyso-Gb3 [6]; 25 mg/kg,203 μg/g tissue
same,GL-3 levels Skin,GL-3 and plasma lyso-Gb3 [6]; 25 mg/kg,102 μg/g tissue
same,Plasma lyso-Gb3 levels,GL-3 and plasma lyso-Gb3 [6]; 25 mg/kg,18.1 ng/mL
same,"GL-3 in heart and kidney, dose-response",GL-3 and plasma lyso-Gb3 [7],good dose-response
same,"GL-3 in skin and plasma lyso-GB3, dose-response",GL-3 and plasma lyso-Gb3 [7],good dose-response
rhα-Gal A 01-003: recombinant human α-galactosidase A produced by CHO cell clone 01-003,GL-3 levels Heart,GL-3 and plasma lyso-Gb3 [6]; 10 mg/kg,30.30 μg/g tissue
same,GL-3 levels Kidney,GL-3 and plasma lyso-Gb3 [6]; 10 mg/kg,277 μg/g tissue
same,GL-3 levels Skin,GL-3 and plasma lyso-Gb3 [6]; 10 mg/kg,149 μg/g tissue
same,Heart GL-3 % reduction compared to Fabrazyme (10 mg/kg),GL-3 and plasma lyso-Gb3 [6]; 10 mg/kg,43.05%
same,Kidney GL-3 % reduction compared to Fabrazyme (10 mg/kg),GL-3 and plasma lyso-Gb3 [6]; 10 mg/kg,1.42%
same,Plasma lyso-Gb3 % reduction compared to Fabrazyme (10 mg/kg),GL-3 and plasma lyso-Gb3 [6]; 10 mg/kg,2.71%
same,Plasma lyso-Gb3 levels,GL-3 and plasma lyso-Gb3 [6]; 10 mg/kg,28.7 ng/mL
same,Skin GL-3 % reduction compared to Fabrazyme (10 mg/kg),GL-3 and plasma lyso-Gb3 [6]; 10 mg/kg,28.02%
same,overall substrate reduction (GL-3 and lyso-Gb3),GL-3 and plasma lyso-Gb3 [6]; rhα-Gal A 10 mg/kg,greater substrate reduction than an equivalent dose of Fabrazyme
same,"GL-3 in heart and kidney, dose-response",GL-3 and plasma lyso-Gb3 [7],good dose-response
same,"GL-3 in skin and plasma lyso-GB3, dose-response",GL-3 and plasma lyso-Gb3 [7],good dose-response
same,α-Gal A substrate (GL-3) in heart and kidney,GL-3,able to reduce α-Gal A substrate in heart and kidney
rhα-Gal A 04-023: recombinant human α-galactosidase A produced by CHO cell clone 04-023,plasma lyso-Gb3 compared to Fabrazyme alone (1 mg/kg),GL-3 and plasma lyso-Gb3 [8]; seven days,significantly lower levels of plasma lyso-Gb3
same,reduction of GL-3 in heart tissue compared to 1 mg/kg Fabrazyme,GL-3 and plasma lyso-Gb3 [8]; seven days (FIG. 15A),significantly enhanced reduction of GL-3
same,reduction in GL-3 in kidney,GL-3 and plasma lyso-Gb3 [8]; seven days (FIG. 15B),enhanced substrate reduction
same,GL-3 in skin compared to Fabrazyme alone (1 mg/kg),GL-3 and plasma lyso-Gb3 [8]; seven days (FIG. 15C),significantly lower level of GL-3 in skin
